Test results taken from patent US20260053861A1, “CELL COMPOSITIONS AND METHODS OF USING THE SAME” (THE REGENTS OF THE UNIVERSITY OF CALIFORNIA, priority 2022, published 2026).
Structures can show the parent of a compound that is named as a salt.

The compounds below were run on hPSC-SCs. Settings: not given.
Compound CN1C(=O)CCS(=O)(=O)C1c1ccc(Cl)cc1 (stereo not shown) [Chlormezanone] has a z.score.t of −0.5532.
Compound CCN(CC)CCCC(C)Nc1ccnc2cc(Cl)ccc12 (stereo not shown) [Chloroquine diphosphate] has a z.score.t of 0.7847.
Work on C=C1CC[C@H](O)C/C1=C/C=C1\CCC[C@]2(C)[C@@H]([C@H](C)CCCC(C)C)CC[C@@H]12 [Cholecalciferol] yielded a z.score.t of 1.034.
For O=C1C=CC(=O)c2c1ccc1c2ccc2ccccc21 [Chrysene-1,4-quinone], the z.score.t was −1.823.
Work on CC(C)(C)NCC(O)c1cc(Cl)c(N)c(Cl)c1 (stereo not shown) [Clenbuterol hydrochloride] yielded a z.score.t of 0.4048.
With Cc1c(Cl)cccc1Nc1ncccc1C(=O)O.NCCCC[C@H](N)C(=O)O [Clonixin Lysinate] the z.score.t was 0.9603.
Compound COc1cc2c(c(OC)c1OC)-c1ccc(OC)c(=O)cc1[C@@H](NC(C)=O)CC2 [Colchicine] has a z.score.t of −1.804.
CCN1C[C@]2(COC)CC[C@H](O)[C@@]34C5C[C@@H]6[C@@H](OC)C[C@](O)(C(CC23)C14)C5[C@H]6OC(C)=O (stereo partly shown) [Condelphine] gave a z.score.t of 2.361.
COc1cc2cc3c4cc(OC)c(OC)cc4cc[n+]3c(C)c2cc1OC.O.[Cl-] [Coralyne chloride hydrate] was tested, and the z.score.t was −1.014.
CC=CC(=O)N(CC)c1ccccc1C [Crotamiton] gave a z.score.t of −1.426.
Work on C[C@@H]1C[C@@H]([C@H](O)CC2CC(=O)NC(=O)C2)C(=O)[C@@H](C)C1 [Cycloheximide] yielded a z.score.t of −2.003.
For COc1ccccc1N1CCN(CCCCNC(=O)c2ccc3ccccc3c2)CC1.Cl.Cl [DO 897/99], the z.score.t was −0.4139.
Compound COc1cccc2c1C(=O)c1c(O)c3c(c(O)c1C2=O)C[C@@](O)(C(C)=O)C[C@@H]3O[C@H]1C[C@H](N)[C@H](O)[C@H](C)O1 [Daunorubicin hydrochloride] has a z.score.t of −1.999.
CC(=O)N(O)CCCCCNC(=O)CCC(=O)N(O)CCCCCNC(=O)CCC(=O)N(O)CCCCCN [Deferoxamine mesylate] was tested, and the z.score.t was 0.557.
CC(=O)O[C@H]1CC[C@@]2(C)C(=CC[C@@H]3[C@@H]2CC[C@]2(C)C(=O)CC[C@@H]32)C1 [Dehydroisoandosterone 3-acetate] showed a z.score.t of 0.7349.

Same assay, conditions: HTS viability of hPSC-SCs in the presence of 30 mM glucose; Prestwick library; Table S4
O=C(/C=C/c1ccc(O)c(O)c1)O[C@@H]1C[C@](O)(C(=O)O)C[C@@H](O)[C@H]1O [Chlorogenic acid] gave a z.score.t of 0.888.
CN(C)CCN(Cc1ccc(Cl)cc1)c1ccccn1 [Chloropyramine hydrochloride] gave a z.score.t of −0.5169.
Work on NS(=O)(=O)c1cc2c(cc1Cl)N=CNS2(=O)=O [Chlorothiazide] yielded a z.score.t of 1.171.
COc1ccc(C(Cl)=C(c2ccc(OC)cc2)c2ccc(OC)cc2)cc1 [Chlorotrianisene] was tested, and the z.score.t was −0.5169.
For CN(C)CCC(c1ccc(Cl)cc1)c1ccccn1 (stereo not shown) [Chlorpheniramine maleate], the z.score.t was 0.5452.
Work on NC(=O)OCC(O)COc1ccc(Cl)cc1 (stereo not shown) [Chlorphensin carbamate] yielded a z.score.t of −0.09426.
In the case of CN(C)CCCN1c2ccccc2Sc2ccc(Cl)cc21 [Chlorpromazine hydrochloride], the z.score.t is reported as −1.622.
CCCNC(=O)NS(=O)(=O)c1ccc(Cl)cc1 [Chlorpropamide] showed a z.score.t of 0.1979.
For CN(C)CC/C=C1/c2ccccc2Sc2ccc(Cl)cc21 [Chlorprothixene hydrochloride], the z.score.t was −0.6678.
In the case of CN(C)[C@@H]1C(O)=C(C(N)=O)C(=O)[C@@]2(O)C(O)=C3C(=O)c4c(O)ccc(Cl)c4[C@@](C)(O)[C@H]3C[C@@H]12 [Chlortetracycline hydrochloride], the z.score.t is reported as 0.02534.
Work on NS(=O)(=O)c1cc(C2(O)NC(=O)c3ccccc32)ccc1Cl (stereo not shown) [Chlorthalidone] yielded a z.score.t of −1.061.
O=c1cc(-c2ccccc2)oc2cc(O)cc(O)c12 [Chrysin] showed a z.score.t of 0.2139.
In the case of Cc1cc(C2CCCCC2)n(O)c(=O)c1.NCCO [Ciclopirox ethanolamine], the z.score.t is reported as −1.422.
In the case of O=C1CCc2cc(OCCCCc3nnnn3C3CCCCC3)ccc2N1 [Cilostazol], the z.score.t is reported as 1.73.
Work on CN/C(=N/CCSCc1nc[nH]c1C)NC#N [Cimetidine] yielded a z.score.t of 0.4346.
Compound C=C[C@H]1C[N@@]2CC[C@H]1C[C@@H]2[C@@H](O)c1ccnc2ccccc12 [Cinchonine] has a z.score.t of 1.252.
With C(=C\c1ccccc1)/CN1CCN(C(c2ccccc2)c2ccccc2)CC1 [Cinnarizine] the z.score.t was −0.8513.
Compound CCn1nc(C(=O)O)c(=O)c2cc3c(cc21)OCO3 [Cinoxacin] has a z.score.t of 0.9525.
Compound CC(C)(Oc1ccc(C2CC2(Cl)Cl)cc1)C(=O)O (stereo not shown) [Ciprofibrate] has a z.score.t of −0.2611.
Work on O=C(O)c1cn(C2CC2)c2cc(N3CCNCC3)c(F)cc2c1=O [Ciprofloxacin hydrochloride] yielded a z.score.t of 0.6386.
For COc1cc(N)c(Cl)cc1C(=O)NC1CCN(CCCOc2ccc(F)cc2)CC1OC (stereo not shown) [Cisapride], the z.score.t was 0.3436.
Compound CN(C)CCCC1(c2ccc(F)cc2)OCc2cc(C#N)ccc21 (stereo not shown) [Citalopram Hydrobromide] has a z.score.t of −0.5169.
COc1cc(N)c(Cl)cc1C(=O)NC1CCN(Cc2ccccc2)CC1 [Clebopride maleate] was tested, and the z.score.t was 1.08.
CN1CCC[C@@H]1CCO[C@](C)(c1ccccc1)c1ccc(Cl)cc1 [Clemastine fumarate] gave a z.score.t of −1.892.
Clc1ccc(Cn2c(CN3CCCC3)nc3ccccc32)cc1 [Clemizole hydrochloride] gave a z.score.t of 0.7789.
C[N+]12CCC(CC1)C(OC(=O)C(O)(c1ccccc1)c1ccccc1)C2 (stereo not shown) [Clidinium bromide] gave a z.score.t of 1.743.
Oc1c(I)cc(Cl)c2cccnc12 [Clioquinol] gave a z.score.t of −0.2802.
CCC(=O)O[C@]1(C(=O)CCl)[C@@H](C)C[C@H]2[C@@H]3CCC4=CC(=O)C=C[C@]4(C)[C@@]3(F)[C@@H](O)C[C@@]21C [Clobetasol propionate] showed a z.score.t of 1.323.
C[C@@H]1C[C@H]2[C@@H]3C[C@H](F)C4=CC(=O)C=C[C@]4(C)[C@@]3(Cl)[C@@H](O)C[C@]2(C)[C@H]1C(=O)COC(=O)C(C)(C)C [Clocortolone pivalate] showed a z.score.t of −0.7388.
For CC(C)/N=c1\cc2n(-c3ccc(Cl)cc3)c3ccccc3nc-2cc1Nc1ccc(Cl)cc1 [Clofazimine], the z.score.t was −1.765.
Compound CC(C)(Oc1ccc(Cl)cc1)C(=O)O [Clofibric acid] has a z.score.t of −0.8317.
CCN(CC)CCOc1ccc(C(=C(Cl)c2ccccc2)c2ccccc2)cc1.O=C(O)CC(O)(CC(=O)O)C(=O)O [Clomiphene citrate (Z,E)] gave a z.score.t of −1.755.
For CN(C)CCCN1c2ccccc2CCc2ccc(Cl)cc21 [Clomipramine hydrochloride], the z.score.t was −1.637.
Clc1cccc(Cl)c1N=C1NCCN1 [Clonidine hydrochloride] showed a z.score.t of 1.056.
Work on C[C@@H]1CCC[C@H](C)N1NC(=O)c1ccc(Cl)c(S(N)(=O)=O)c1 [Clopamide] yielded a z.score.t of 0.7847.
Compound Clc1ccc(C(OCCN2CCCCC2)c2ccccc2)cc1 (stereo not shown) [Cloperastine hydrochloride] has a z.score.t of −1.185.
Work on C#CCN(C)CCCOc1ccc(Cl)cc1Cl [Clorgyline hydrochloride] yielded a z.score.t of 0.1556.
Nc1cc(C(Cl)=C(Cl)Cl)c(S(N)(=O)=O)cc1S(N)(=O)=O [Clorsulon] gave a z.score.t of 0.563.
For Clc1ccccc1C(c1ccccc1)(c1ccccc1)n1ccnc1 [Clotrimazole], the z.score.t was −1.91.
Cc1onc(-c2ccccc2Cl)c1C(=O)N[C@@H]1C(=O)N2[C@@H]1SC(C)(C)[C@@H]2C(=O)O [Cloxacillin sodium salt] was tested, and the z.score.t was 0.6255.
In the case of CN1CCN(C2=Nc3cc(Cl)ccc3Nc3ccccc32)CC1 [Clozapine], the z.score.t is reported as 1.049.
Work on C[C@H]1[C@H]2CC[C@H]3[C@@H]4CC=C5C[C@@H](N(C)C)CC[C@]5(C)[C@H]4CC[C@]23CN1C [Conessine] yielded a z.score.t of 0.5822.
COc1ccc(C(=O)OC2C[C@H]3CC[C@@H](C2)N3C)cc1OC.Cl (stereo partly shown) [Convolamine hydrochloride] showed a z.score.t of 1.345.
Compound C[C@]12C[C@H](O)[C@H]3[C@@H](CCC4=CC(=O)CC[C@@]43C)[C@@H]1CC[C@@H]2C(=O)CO [Corticosterone] has a z.score.t of −0.2486.
Work on C[C@]12CCC(=O)C=C1CC[C@@H]1[C@@H]2C(=O)C[C@@]2(C)[C@H]1CC[C@]2(O)C(=O)CO [Cortisone] yielded a z.score.t of 0.9568.
In the case of COC(=O)[C@H]1[C@H]2C[C@H]3c4[nH]c5ccccc5c4CCN3C[C@@H]2CC[C@@H]1O.Cl [Corynanthine hydrochloride], the z.score.t is reported as 1.095.
For O=C(O)c1cc(=O)c2c(OCC(O)COc3cccc4oc(C(=O)O)cc(=O)c34)cccc2o1 [Cromolyn disodium salt], the z.score.t was 0.557.
In the case of CN1CCN(C(c2ccccc2)c2ccccc2)CC1 [Cyclizine hydrochloride], the z.score.t is reported as 0.5437.
CN(C)CCC=C1c2ccccc2C=Cc2ccccc21 [Cyclobenzaprine hydrochloride] showed a z.score.t of −0.1641.
Compound NS(=O)(=O)c1cc2c(cc1Cl)NC(CC1CCCC1)NS2(=O)=O (stereo not shown) [Cyclopenthiazide] has a z.score.t of 2.573.
Compound CN(C)CCOC(=O)C(c1ccccc1)C1(O)CCCC1 (stereo not shown) [Cyclopentolate hydrochloride] has a z.score.t of −0.5614.
For CN1CCC(=C2c3ccccc3C=Cc3ccccc32)CC1 [Cyproheptadine hydrochloride], the z.score.t was 0.4486.
CC(=O)O[C@]1(C(C)=O)CC[C@H]2[C@@H]3C=C(Cl)C4=CC(=O)[C@@H]5C[C@@H]5[C@]4(C)[C@H]3CC[C@@]21C [Cyproterone acetate] showed a z.score.t of −0.5219.
Compound N[C@@H]1CONC1=O [D-cycloserine] has a z.score.t of 0.9162.
Compound CN(C)/N=N/c1[nH]cnc1C(N)=O [Dacarbazine] has a z.score.t of −0.6301.
C#C[C@]1(O)CC[C@H]2[C@@H]3CCC4=Cc5oncc5C[C@]4(C)[C@H]3CC[C@@]21C [Danazol] gave a z.score.t of 0.1149.
For O=C1CN(/N=C/c2ccc(-c3ccc([N+](=O)[O-])cc3)o2)C(O)=N1 [Dantrolene sodium salt], the z.score.t was 1.306.
Nc1ccc(S(=O)(=O)c2ccc(N)cc2)cc1 [Dapsone] gave a z.score.t of 1.024.
Compound N=C(N)N1CCc2ccccc2C1 [Debrisoquin sulfate] has a z.score.t of 0.6578.
Compound C[N+](C)(C)CCCCCCCCCC[N+](C)(C)C [Decamethonium bromide] has a z.score.t of −1.558.
C[C@H](CCC(=O)O)[C@H]1CC[C@H]2[C@@H]3C(=O)C[C@@H]4CC(=O)CC[C@]4(C)[C@H]3CC(=O)[C@]12C [Dehydrocholic acid] showed a z.score.t of 1.472.
